For experiment [1], the system named is differentiated L6-myotubes. The experiment is described as follows: cAMP production relative to isoprenaline (Biological example 2 of WO 2019/053427). It is filed as cell-based. To be noted: compound at 10 μM, activity relative to isoproterenol at 10 μM; for Emax at 10 µM: 0.25 h. In a few lines:
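Values are cAMP levels relative to isoprenaline at equal concentration (final 1×10^−5 M for both). Stimulation lasted 15 min in differentiated L6 myotubes, using HBSS buffer (pH 7.4) containing 1 mM IBMX, 5 mM HEPES and 1% BSA.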
For orientation: Cyclic AMP is a second messenger, typically raised through Gs and lowered through Gi signalling.

Experiment [2] relates to differentiated L6-myotubes. The experiment is described as follows: Glucose uptake screen (Biological example 1 of WO 2019/053427). It is filed as cell-based. To be noted: compound at 10 μM, activity relative to isoproterenol at 10 μM; for Emax at 10 µM: read-out: Biological example 1 of WO 2019/053427 (GU). The procedure, abridged: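 Uptake was read out as ^3H-2-deoxyglucose (50 nM, 10 min) radioactivity in NaOH lysates. Beforehand, overnight-starved, differentiated L6 myotubes received compound at 1×10^−5 M with ICI-118551 present for 1 h 40 min, followed by fresh agonist for a further 20 min in glucose-free medium.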

Each structure is given as a SMILES string. Some results are limits rather than exact numbers.

These results are taken from patent US20260256751A1, “COMBINATION OF BETA-2-ADRENERGIC RECEPTOR AGONISTS AND GLP-1 RECEPTOR AGONISTS FOR USE IN TREATING HYPERGLYCAEMIA” (ATROGI AB, priority 2023, published 2026).

With `CC(C)(C)NC[C@H](O)c1cncc(O)c1` [Compound 100, 5-[(R)-2-(tert-butylamino)-1-hydroxyethyl]-3-pyridinol], the Emax at 10 µM in experiment [1] is less than 25%; in experiment [2] it was more than 75%.
On the same counts, the results for `CC12CCC([C@@H](O)c3cncc(F)c3)(CC1)N2` [Compound 184, (S)-(5-fluoro-3-pyridyl)(4-methyl-7-azabicyclo[2.2.1]hept-1-yl)methanol] are less than 25% and 50 to 75%.
For `CC(C)(C)NCC(O)c1ccc(O)cc1` (stereo not drawn) [Compound 4, 2-(tert-butylamino)-1-(p-hydroxyphenyl)-1-ethanol], the figures for the Emax at 10 µM in experiment [1] and in experiment [2] were 25 to 50% and more than 75%, respectively.
For the molecule `CCCCCCNCC(O)c1ccc(O)cc1` (stereo not drawn) [Compound 17, 2-(hexylamino)-1-(p-hydroxyphenyl)-1-ethanol], the Emax at 10 µM in experiment [1] was less than 25%; in experiment [2], 25 to 50%.
On the same counts, the results for `CC(=O)N[C@H]1CC[C@@H](C[C@@H]2CC[C@H]([C@H](O)c3cccc(F)c3)N2)CC1` [Compound 484, N-[(1R,4s)-4-({(2S,5R)-5-[(R)-(m-fluorophenyl)hydroxymethyl]-2-pyrrolidinyl}methyl)cyclohexyl]acetamide] are less than 25% and 50 to 75%.
On to `CC1(C)CC[C@H]([C@H](O)c2cccc(Cl)c2)N1` [Compound 154, (R)-[(R)-5,5-dimethyl-2-pyrrolidinyl](m-chlorophenyl)methanol], for which the results for the Emax at 10 µM in experiment [1] and in experiment [2] were less than 25% and more than 75%, respectively.
On the same counts, the results for `CO[C@H]1CC[C@H](CC(C)(C)NC[C@H](O)c2cccc(F)c2)CC1` [Compound 249, (R)-2-{1,1-dimethyl-2-[(1r,4R)-4-methoxycyclohexyl]ethyl-amino}-1-(m-fluorophenyl)-1-ethanol] are less than 25% and more than 75%.
For `CCC[C@@H]1CC[C@H]([C@H](O)c2cncc(F)c2)N1` [Compound 161], in experiment [1], the “Biological example of WO 2019/053427 (cAMP)” value was “− (less than 25%)”. For the same molecule, the “Biological example 1 of WO 2019/053427 (GU)” value in experiment [2] was “+ (between 50 and 25%)”.
On to `CCCCNCC(O)c1ccncc1` (stereo not drawn) [Compound 48, 2-(butylamino)-1-(4-pyridyl)-1-ethanol], for which the figures for the Emax at 10 µM in experiment [1] and in experiment [2] were less than 25% and 25 to 50%, respectively.
On the same counts, the results for `CCS(=O)(=O)N[C@H]1CC[C@@H](CC(C)(C)NC[C@H](O)c2cccc(F)c2)CC1` [Compound 524, (R)-2-{1,1-dimethyl-2-[(1s,4S)-4-(ethylsulfonylamino)cyclohexyl]ethylamino}-1-(m-fluorophenyl)-1-ethanol] are less than 25% and 50 to 75%.
For the molecule `CC(C)(C[C@H]1CC[C@H](N)CC1)NC[C@H](O)c1cccc(F)c1` [Compound 371, (R)-2-{1,1-dimethyl-2-[(1r,4R)-4-aminocyclohexyl]ethylamino}-1-(m-fluorophenyl)-1-ethanol], the Emax at 10 µM in experiment [1] is less than 25%; in experiment [2] it was more than 75%.
On to `CCCC(C)NCC(O)c1cc(Cl)c(O)c(Cl)c1` (stereo not drawn) [Compound 25, 1-(3,5-dichloro-4-hydroxyphenyl)-2-(1-methylbutylamino)-1-ethanol], for which the Emax at 10 µM in experiment [1] and in experiment [2] was less than 25% in each case.
For the molecule `CC(C)(C[C@H]1CC[C@@H](NS(=O)(=O)C(F)(F)F)CC1)NC[C@H](O)c1cccc(F)c1` [Compound 493, (R)-2-{1,1-dimethyl-2-[(1s,4S)-4-(trifluoromesylamino)cyclohexyl]ethylamino}-1-(m-fluorophenyl)-1-ethanol], the Emax at 10 µM in experiment [1] was less than 25%; in experiment [2] it was 25 to 50%.
Regarding `CC(C)(C[C@H]1CC[C@@H](C(=O)O)CC1)NC[C@H](O)c1cncc(F)c1` [Compound 324, (1S,4s)-4-{2-[(R)-2-(5-fluoro-3-pyridyl)-2-hydroxyethylamino]-2-methylpropyl}cyclohexanecarboxylic acid], the results for the Emax at 10 µM in experiment [1] and in experiment [2] were less than 25% and 25 to 50%, respectively.
Consider `CC(C)(CC[C@H]1CC[C@H](O)CC1)NC[C@H](O)c1cccc(F)c1` [Compound 290, (R)-2-{1,1-dimethyl-3-[(1r,4S)-4-hydroxycyclohexyl]propyl-amino}-1-(m-fluorophenyl)-1-ethanol], for which the Emax at 10 µM is less than 25% in experiment [1] and 25 to 50% in experiment [2].
In the case of `CO[C@H]1CC[C@@H](CCCNC[C@H](O)c2cncc(F)c2)CC1` [Compound 260, (R)-1-(5-fluoro-3-pyridyl)-2-{3-[(1s,4R)-4-methoxycyclohexyl]propyl-amino}-1-ethanol], the Emax at 10 µM was less than 25% in experiment [1] and more than 75% in experiment [2].
The matching figures for `CO[C@H]1CC[C@@H](CNC[C@H](O)c2cccc(F)c2)CC1` [Compound 245, (R)-1-(m-fluorophenyl)-2-({[(1s,4S)-4-methoxycyclohexyl]meth-yl}amino)-1-ethanol]: less than 25% and 50 to 75%.
On the same counts, the results for `O[C@@H](CNCC[C@H]1CC[C@H](OCc2ccccc2)CC1)c1cccc(F)c1` [Compound 288, (R)-1-(m-fluorophenyl)-2-{2-[(1r,4R)-4-(benzyloxy)cyclohexyl]eth-ylamino}-1-ethanol] are less than 25% and 25 to 50%.
Consider `CO[C@H]1CC[C@H](C[C@]2(C)CC[C@H]([C@H](O)c3cccc(F)c3)N2)CC1` [Compound 364, (R)-[(2R,5S)-5-methyl-5-{[(1r,4S)-4-methoxycyclohexyl]methyl}-2-pyrrolidinyl](m-fluorophenyl)methanol], for which the Emax at 10 µM in experiment [1] is 50 to 75%; in experiment [2], more than 75%.
On to `O=C(N[C@H]1CC[C@@H](CNC[C@H](O)c2cccc(F)c2)CC1)c1ccccc1` [Compound 316, N-[(1S,4s)-4-{[(R)-2-(m-fluorophenyl)-2-hydroxyethylamino]methyl}cyclohexyl]benzamide], for which the results for the Emax at 10 µM in experiment [1] and in experiment [2] were less than 25% and 50 to 75%, respectively.
The matching figures for `O[C@H](c1cncc(F)c1)C12CCC(C/C=C/c3ccccc3)(CC1)N2` [Compound 530]: 25 to 50% and more than 75%.
For the molecule `COC(=O)[C@H]1CC[C@H](CC(C)(C)NC[C@H](O)c2cccc(F)c2)CC1` [Compound 353, methyl (1R,4r)-4-{2-[(R)-2-(m-fluorophenyl)-2-hydroxyethylamino]-2-methylpropyl}cyclohexanecarboxylate], the values for the Emax at 10 µM in experiment [1] and in experiment [2] were less than 25% and more than 75%, respectively.
On the same counts, the results for `CC1(C)CCC[C@H]([C@@H](O)c2cccc(O)c2)N1` [Compound 103, (S)-[(R)-6,6-dimethyl-2-piperidyl](m-hydroxyphenyl)methanol] are less than 25% and 25 to 50%.
In the case of `CCC[C@@H](C)NC[C@H](O)c1cccc(O)c1` [Compound 28, (R)-2-[(R)-1-methylbutylamino]-1-(m-hydroxyphenyl)-1-ethanol], the results for the Emax at 10 µM in experiment [1] and in experiment [2] were 50 to 75% and more than 75%, respectively.
On the same counts, the results for `CO[C@H]1CC[C@H](C[C@@H]2CC[C@H]([C@@H](O)c3cncc(F)c3)N2)CC1` [Compound 332, (S)-[(2R,5S)-5-{[(1r,4S)-4-methoxycyclohexyl]methyl}-2-pyrrolidinyl](5-fluoro-3-pyridyl)methanol] are less than 25% and 25 to 50%.
On the same counts, the results for `Cc1ncccc1[C@@H](O)CNC(C)(C)C` [Compound 376, (R)-2-(tert-butylamino)-1-(2-methyl-3-pyridyl)-1-ethanol] are 25 to 50% and more than 75%.
On the same counts, the results for `CO[C@H]1CC[C@@H](CCNC[C@H](O)c2cccc(F)c2)CC1` [Compound 237, (R)-1-(m-fluorophenyl)-2-{2-[(1s,4S)-4-methoxycyclohexyl]ethyl-amino}-1-ethanol] are less than 25% and 50 to 75%.
Regarding `O=C(N[C@H]1CC[C@H](CNC[C@H](O)c2cccc(F)c2)CC1)c1ccccc1` [Compound 315, N-[(1R,4r)-4-{[(R)-2-(m-fluorophenyl)-2-hydroxyethylamino]methyl}cyclohexyl]benzamide], the Emax at 10 µM in experiment [1] is less than 25%; in experiment [2] it was more than 75%.
`CC12CC(C1)[C@H]([C@@H](O)c1ccccc1F)N2` [Compound 212, (S)-{(R)-1-methyl-2-azabicyclo[2.1.1]hex-3-yl}(o-fluorophenyl)methanol]: the results for the Emax at 10 µM in experiment [1] and in experiment [2] were less than 25% and more than 75%, respectively.
The matching figures for `CCC[C@H]1CCCC[C@@H]([C@@H](O)c2cncc(F)c2)N1` [Compound 235, (S)-[(2S,7S)-7-propyl-2-azepanyl](5-fluoro-3-pyridyl)methanol]: less than 25% and less than 25%.
The matching figures for `CCC[C@H](C)NC[C@H](O)c1ccc(F)cc1` [Compound 53, (R)-2-[(S)-1-methylbutylamino]-1-(p-fluorophenyl)-1-ethanol]: less than 25% and 50 to 75%.
On the same counts, the results for `CO[C@H]1CC[C@H](CCC23CCC([C@H](O)c4cccc(F)c4)(CC2)N3)CC1` [Compound 411, (R)-(m-fluorophenyl)(4-{2-[(1r,4S)-4-methoxycyclohexyl]ethyl}-7-azabicyclo[2.2.1]hept-1-yl)methanol] are 50 to 75% and more than 75%.
As to `CS(=O)(=O)N[C@H]1CC[C@H](CNC[C@H](O)c2cccc(F)c2)CC1` [Compound 311, (R)-1-(m-fluorophenyl)-2-({[(1r,4R)-4-(mesylamino)cyclohexyl]methyl}amino)-1-ethanol], the Emax at 10 µM in experiment [1] is less than 25%; in experiment [2], 50 to 75%.
